Source: article PMC12561453, “Synthesis and Structure–Activity Relationship Study of 2-(amino)quinazolin-4(3H)-one Derivatives as Potential Inhibitors of Methicillin-Resistant Staphylococcus aureus (MRSA)” (Antibiotics, 2025)
Converted amounts (≈) assume the structure as drawn.

Experiments:
[1] = Cytotoxicity in VERO cells; format: cell-based; conditions: African green monkey, VERO cells (kidney cell line)
Procedure: (§1) Table S1. Results of hERG binding assay and cytotoxicity of 6l and 6y
(§2) Compound hERGa CytotoxicityVERO HFL-1 L929 NIH 3T3 CHO-K1
(§3) a % inhibition at 10 μM concentrations. b IC50 values in various mammalian cell lines. […]

[2] = Cytotoxicity in NIH 3T3 cells; format: cell-based; conditions: mouse, NIH 3T3 cells (embryonic fibroblast cell line)
Procedure: as §1, §2, §3

CYP3A4 = biological target: T1, CYP3A4 (Homo sapiens, UniProt P08684); test: CYP inhibition in human liver microsomes, 3A4; format: in vitro ADME
T1 construct: from tissue; host or cells: human liver microsomes
Procedure: (§4) Table S2. Result of microsomal stability, plasma protein binding rate, and CYP inhibition of 6l and 6y
(§5) Compound MSa PPBrat human rat human 1A2 2C9 2C19 2D6 3A4
(§6) a % of remaining after 30 min. b plasma protein binding rate (%) at 5 μM concentrations. c % of CYP
(§7) inhibition in human liver microsomes at 10 μM concentrations. […]

[3] = Cytotoxicity in HFL-1 cells; format: cell-based; conditions: human, HFL-1 cells (embryonic lung cell line)
Procedure: as §1, §2, §3

[4] = Plasma protein binding, rat; format: in vitro ADME; conditions: read-out: PPB rat, plasma protein binding rate (converted)
Procedure: as §4, §5, §6, §7

[5] = test system: S. aureus USA300 JE2 expressing GFP in H460 cells; test: microbe, parasite or virus in culture; format: cell-based, Staphylococcus aureus; conditions: for MIC50: Staphylococcus aureus, USA300, 24 h, read-out: H460 Assay MIC50 (MIC50 ex vivo)
From the text: Staphylococcus aureus, including MRSA, can invade host cells and replicate intracellularly, which complicates treatment with current therapies. To evaluate the intracellular antibacterial activities of the selected compounds, the fifteen compounds tested for cytotoxicity were further assessed using a cell infection model based on H460 human lung epithelial cells, which mimic MRSA-mediated pneumonia. H460 cells were infected with the USA300 JE2 expressing green fluorescent protein (GFP) and subsequently treated with the compounds in a dose–response manner, along with three reference antibiotics: vancomycin, linezolid, and erythromycin. After 24 h of incubation, bacterial loads were quantified by measuring GFP fluorescence in each well. MIC50 values determined in the H460 infection model (MIC50 ex vivo) were generally higher than those obtained from the in vitro tests, likely due to either limited compound penetration into host cells or reduced antibacterial effect of the compounds against intracellular bacteria (Figure 3, Table 2). […] These findings underscore the potential of compound 6y as a promising lead for further development as a novel antistaphylococcal agent.
To see the ex vivo antimicrobial activity of the compound, the human lung carcinoma cell line H460 (ATCC #HTB-177) was used. The H460 cells were cultured in RPMI 1640 medium with 10% fetal bovine serum (FBS) and in a 96-well microplate at 37 °C and 5% CO2. Cell lines were cultured for 2 days, until they reached full confluence in the well. S. aureus (USA300-containing and pCM29-encoding GFP) was cultured in CAMHB with 10 µg/mL of chloramphenicol, and bacterial cells were harvested. After washing the bacterial cells with phosphate-buffered saline (PBS) and suspending them in RPMI, infected H460 cells with S. aureus (1 × 10^7 CFU) and incubated them for 2.5 h. Samples were washed three times with PBS. Then, cells were treated with gentamicin (50 µg/mL of gentamicin in RPMI) and incubated for 1 h. Samples were washed with PBS, RPMI-containing diluted compounds were added, and then they were incubated at 37 °C in 5% CO2 for 24 h. To detect the Green fluorescent protein (GFP) signal, an Ensight multimode plate reader and Opera Phenix Plus (Revvity, Waltham, MA, USA) were used.
Ex vivo infection model images were generated using the Opera Phenix Plus high-content imaging system. Images were obtained by a confocal microscope with a 20× water objective lens. To detect the bacteria fluorescence signal (GFP), the Alexa 488 channel (488 nm laser/500–550 filter, Thermo Fisher Scientific, Waltham, MA, USA) was used, and the brightfield channel was used for H460 cell images.
Figure 3 Antibacterial activities of 2-(amino)quinazolin-4(3H)-one derivatives in the H460 infection model. H460 cells were infected with S. aureus USA300 JE strain expressing GFP, followed by treatment with serial dilutions of 2-(amino)quinazolin-4(3H)-one derivatives. After incubation at 37 °C for 24 h with 5% CO2, fluorescence signals of the bacteria were detected at 488 nm/510 nm using a multilabel plate reader.

[6] = Cytotoxicity in L929 cells; format: cell-based; conditions: mouse, L929 cells (NCTC clone 929, fibroblast cell line)
Procedure: as §1, §2, §3

CYP2C19 = biological target: T2, CYP2C19 (Homo sapiens, UniProt P33261); test: CYP inhibition in human liver microsomes, 2C19; format: in vitro ADME
T2 construct: from tissue; host or cells: human liver microsomes
Procedure: as §4, §5, §6, §7

[7] = Plasma protein binding, human; format: in vitro ADME; conditions: read-out: PPB human, plasma protein binding rate (converted)
Procedure: as §4, §5, §6, §7

CYP1A2 = biological target: T3, CYP1A2 (Homo sapiens, UniProt P05177); test: CYP inhibition in human liver microsomes, 1A2; format: in vitro ADME
T3 construct: from tissue; host or cells: human liver microsomes
T3 sequence (P05177 1-516): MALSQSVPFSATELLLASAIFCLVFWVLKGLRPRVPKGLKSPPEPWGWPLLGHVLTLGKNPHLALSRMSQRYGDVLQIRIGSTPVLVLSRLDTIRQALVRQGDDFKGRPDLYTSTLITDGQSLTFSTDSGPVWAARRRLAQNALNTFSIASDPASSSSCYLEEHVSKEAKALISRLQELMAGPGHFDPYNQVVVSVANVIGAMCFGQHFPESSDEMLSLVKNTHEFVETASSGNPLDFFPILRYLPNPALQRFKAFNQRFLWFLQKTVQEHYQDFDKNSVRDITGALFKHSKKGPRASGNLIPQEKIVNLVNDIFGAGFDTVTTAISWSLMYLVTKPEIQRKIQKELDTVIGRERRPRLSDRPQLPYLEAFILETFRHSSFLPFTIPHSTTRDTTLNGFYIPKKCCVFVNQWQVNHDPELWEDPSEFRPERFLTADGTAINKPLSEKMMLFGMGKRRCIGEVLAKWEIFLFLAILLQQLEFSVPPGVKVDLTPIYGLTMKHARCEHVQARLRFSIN
Procedure: as §4, §5, §6, §7

T1 sequence (P08684 whole entry): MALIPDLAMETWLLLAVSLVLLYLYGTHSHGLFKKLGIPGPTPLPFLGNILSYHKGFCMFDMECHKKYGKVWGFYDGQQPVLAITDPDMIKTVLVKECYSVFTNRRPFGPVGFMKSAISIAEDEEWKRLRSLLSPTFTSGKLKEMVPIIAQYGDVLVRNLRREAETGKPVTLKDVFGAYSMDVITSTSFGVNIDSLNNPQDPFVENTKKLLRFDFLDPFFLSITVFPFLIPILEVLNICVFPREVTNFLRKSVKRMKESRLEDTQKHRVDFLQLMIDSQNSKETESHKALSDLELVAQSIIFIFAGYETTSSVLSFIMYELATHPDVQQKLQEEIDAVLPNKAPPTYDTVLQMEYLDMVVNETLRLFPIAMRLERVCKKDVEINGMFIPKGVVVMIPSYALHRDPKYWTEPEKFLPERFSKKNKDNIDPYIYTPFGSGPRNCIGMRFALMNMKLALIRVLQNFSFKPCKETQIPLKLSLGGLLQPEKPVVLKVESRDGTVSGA
T2 sequence (P33261 whole entry): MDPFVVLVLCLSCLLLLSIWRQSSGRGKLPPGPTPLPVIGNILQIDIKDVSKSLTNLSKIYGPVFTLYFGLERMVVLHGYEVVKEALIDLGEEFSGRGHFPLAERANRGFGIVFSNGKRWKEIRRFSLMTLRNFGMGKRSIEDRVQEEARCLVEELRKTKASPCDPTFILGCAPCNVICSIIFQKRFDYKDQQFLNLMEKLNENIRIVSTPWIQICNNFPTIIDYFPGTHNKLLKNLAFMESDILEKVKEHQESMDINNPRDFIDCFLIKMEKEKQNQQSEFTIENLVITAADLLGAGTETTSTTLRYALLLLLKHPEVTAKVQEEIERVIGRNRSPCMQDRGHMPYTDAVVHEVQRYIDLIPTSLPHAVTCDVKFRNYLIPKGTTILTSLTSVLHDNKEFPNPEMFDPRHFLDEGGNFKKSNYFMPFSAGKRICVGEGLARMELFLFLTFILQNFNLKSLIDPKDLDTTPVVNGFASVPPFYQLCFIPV

Structure (SMILES) | IC50 [1] | IC50 [2] | inhibition at 10 µM (CYP3A4) | IC50 [3] | fraction unbound at 5 μM [4] | MIC50 [5] | IC50 [6] | inhibition at 10 µM (CYP2C19) | fraction unbound at 5 μM [7] | inhibition at 10 µM (CYP1A2) | distortion of H460 cell morphology (in words) ([5]; 6.25 µM, brightfield images, 24 h) | bacterial load in infected H460 cells (in words) ([5]; 6.25 µM, confocal images, 24 h) | H460 Assay MIC50 (MIC50 ex vivo) ([5]; H460 cells infected with USA300 JE2-GFP, 24 h, GFP fluorescence)
O=c1[nH]c(Nc2cc(Cl)cc(Cl)c2)nc2cc(Cl)ccc12 [6l, 7-Chloro-2-((3,5-dichlorophenyl)amino)quinazolin-4(3H)-one] | 8.5 µM | > 100 µM | 32.2% | 7.5 µM | 0.001 | 12.1 µM (≈ 4.12 µg/mL) | 31.4 µM | < 1% | 0.002 | 15.1% | – | – | –
O=c1[nH]c(NCc2ccc(F)c(F)c2)nc2cc(Cl)ccc12 [6y, 7-Chloro-2-((3,4-difluorobenzyl)amino)quinazolin-4(3H)-one] | 50.5 µM | 62 µM | 91.4% | 50.7 µM | 0.005 | 1.9 µM (≈ 0.611 µg/mL) | 79 µM | 93.6% | 0.002 | 92.5% | relatively minimal distortion of H460 cell morphology | markedly reducing the bacterial load | 1.9 µM
